Legend:
[1] = tested on: pocket epithelium; settings: cited from earlier work
[2] = tested on: pocket epithelium; settings: monkey, in vivo; cited from earlier work
[3] = tested on: gram-negative anaerobes and spirochetes; settings: cited from earlier work
[4] = tested on: spirochetes and motile rods in subgingival plaques; settings: up to 12 weeks; cited from earlier work
[5] = tested on: periodontitis; experiment: Extensive in vivo administration of viscous tetracycline and 10% carbamide peroxide gel with mechanical debridement (Phase I-III)
Experimental: Each of the subjects had up to 6 or more recorded pocket sites, which can have up to 32 teeth and other parameters of periodontal disease recordings as well as health recordings in their patient records.
During Phase I treatments of periodontitis, a gel solution including 10% carbamide peroxide was applied directly to the periodontal pocket and pocket areas immediately followed by or preceded by 30-600 mg or more of pure topical tetracycline in powder or paste form, also applied directly to the pocket and pocket treatment areas together with the gel solution. The gel solution and the tetracycline were also applied to teeth directly. Tetracycline was added at intervals throughout the treatment. Treatment was performed on pockets from 3 mm up to 10 mm and more.
When pocket tissue was swollen, the 10% carbamide peroxide penetrated the deep pocket under the gum. The 10% carbamide peroxide was in the form of a viscous gel and was applied to the wound site or pocket using a periodontal probe, for example, or using a curet or scaler. For example, one or two drops from a squeeze-bottle applicator was applied to the end of end of a curette tip or scaler or was applied with a periodontal pocket measuring probe. The peroxide gel was also applied under artificial teeth and implants, for example under restorative bridges such as pontic areas, whether with implants or natural teeth. […]

Structure (SMILES): OCl [sodium hypochlorite]
- time to restoration of epithelial lining ([1]; in vivo): 7 days
- removal of pocket epithelium (histological) ([1]; one minute application, neutralization, six curette strokes): complete removal of pocket epithelium with normal healing
- time to nearly complete healing without irreparable damage [2]: 11 days
- time to reformation of epithelial lining [2]: 3 days
- time to removal of most of the necrotic layer [2]: 16 h
- duration of the decrease ([3]; in vivo): 30 to 90 days
- number of gram-negative anaerobes and spirochetes ([3]; patients under 18 years, no scaling and root planing): significant decrease
- percentages of spirochetes and motile rods versus scaling and root planing alone [4]: no difference at any time between therapies

Structure (SMILES): CN(C)[C@@H]1C(O)=C(C(N)=O)C(=O)[C@@]2(O)C(O)=C3C(=O)c4c(O)cccc4[C@@](C)(O)[C@H]3C[C@@H]12 [tetracycline]
- in office patient complaints ([5]; in vivo): to taste, not pain
- allergic reaction with topical use ([5]; patient population): No true allergic reaction

— patent US12220466B2, “Pharmaceutical formulation” (Cutting Edge Technology, LLC, priority 2016, dated 2025)
